Assay results as given in patent publication US11179412B2, “Methods of treating conditions involving elevated inflammatory response” (University of Pittsburgh—Of the Commonwealth System of …, priority 2017, dated 2021).
Entries after “also recorded” stand apart in the source; their conditions may differ.

How the values were obtained:
[1] = test system: STING signaling (TBK1, IRF3, p65, ALK, EGFR, AKT phosphorylation) in iBMDMs; assay: Western blot of STING pathway protein phosphorylation, iBMDMs; format: cell-based, mouse
Experimental: For immunoblotting, cells were lysed in Cell Lysis Buffer (#9803, Cell Signaling Technology) with protease inhibitor cocktail (Promega), phosphatase inhibitor cocktail (Sigma), and 1 mM Na3VO4 (70). Cleared lysates were resolved by SDS-PAGE (#3450124, Bio-Rad) and then transferred onto PVDF membranes (#1704273, Bio-Rad). The membranes were blocked with Tris-buffered saline Tween 20 (TBST) containing 5% skim milk for 1 h at room temperature and then incubated with the indicated primary antibodies (1:1000-1:5000) overnight at 4° C. After being washed with TBST, the membranes were incubated with an HRP-linked anti-mouse IgG secondary antibody (#7076, Cell Signaling Technology) or HRP-linked anti-rabbit IgG secondary antibody (#7074, Cell Signaling Technology) for 1 h at room temperature. The membranes were washed three times in TBST and then visualized and analyzed with a ChemiDoc Touch Imaging System (#1708370, Bio-Rad). The intensities of bands were analyzed with Image Lab software.

[2] = target: T1, interaction between ALK and EGFR (Mus musculus, UniProt P97793+Q01279); assay: IP analysis of the interaction between ALK and EGFR, iBMDMs; format: cell-based; conditions: 3′3′-cGAMP or c-di-AMP 10 μg/ml, 16 hours, 10 μM
T1 construct: endogenous in cells; host or cells: iBMDMs
Experimental: Concentrations of proteins in the supernatant were determined by bicinchoninic acid assay. […] Following incubation, agarose/sepharose beads were washed extensively with PBS and proteins were eluted by boiling in 2× sodium dodecyl sulfate (SDS) sample buffer before SDS-PAGE electrophoresis.

[3] = test system: iBMDMs; assay: Cell viability assay (CCK-8), iBMDMs; format: cell-based, mouse; conditions: 3′3′-cGAMP 10 μg/ml, ALK inhibitor 10 μM, 16 hours
Experimental: Cells were seeded into 96-well plates and incubated with the indicated treatments. Subsequently, 100 μl fresh medium was added to cells containing 10 μl Cell Counting Kit-8 (CCK-8) solutions (Dojindo Laboratories) and incubated for 1 h (37° C., 5% CO2). Absorbance at 450 nm was measured using a microplate reader (Tecan).

[4] = test system: CLP-induced polymicrobial sepsis in C57BL/6J mice; assay: CLP model of polymicrobial sepsis; format: in vivo, mouse
Experimental: sepsis was induced in male or female C57BL/6J mice (eight- to 10-weeks old, 22 to 26 g) using a surgical procedure as previously described (68). Briefly, anesthesia was induced with ketamine (80-100 mg/kg/i.p.) and xylazine (10-12.5 mg/kg/i.p.). A small midline abdominal incision was made and the cecum was exteriorized and ligated with 4-0 silk immediately distal to the ileocecal valve without causing intestinal obstruction. The cecum was then punctured twice with a 17-27-gauge needle. The abdomen was closed in two layers and mice were injected subcutaneously with 1 ml Ringer's solution including analgesia (0.05 mg/kg buprenorphine). […]
Biochemical measurements of tissue enzymes (CK, AMYL, BUN, and ALT) in serum were performed using the IDEXX Catalyst Dx Chemistry Analyzer according to the manufacturer's protocol.
Tissues were embedded in optimum cutting temperature cryomedium (Sakura Finetek, Zoeterwoude, the Netherlands) and cut into 4 μm sections. The deparaffinized sections were then stained using the standard H&E method. The stained slides were observed using an EVOS FL Auto Cell Imaging System (Invitrogen), five fields per section and three sections per sample.

[5] = test system: IFNβ mRNA in RAW264.7 cells; assay: IFNβ mRNA Q-PCR, RAW264.7 cells; format: cell-based, mouse; conditions: STING ligands 10 μg/ml, inhibitor 10 μM, 16 hours
Experimental: (§1) Total RNA was extracted using QIAGEN RNeasy Plus Kit according to the manufacturer's instructions. First-strand cDNA was synthesized from 1 μg of RNA using the iScript cDNA Synthesis kit (#1708890, Bio-Rad). Briefly, 20 μl reactions were prepared by combining 4 μl iScript Select reaction mix, 2 μl gene-specific enhancer solution, 1 μl reverse transcriptase, 1 μl gene-specific assay pool (20×, 2 μM), and 12 μl RNA diluted in RNase-free water. Quantitative real-time PCR was carried out using synthesized cDNA, primers, and SsoFast EvaGreen Supermix (#172-5204, Bio-Rad). The expression of target genes was calculated using the ddCt method relative to the expression of a house-keeping gene, β-actin. Data shown are the relative quantity (RQ), with RQ of the control cells set to one.

[6] = test system: receptor tyrosine kinase phosphorylation in iBMDMs; assay: Proteome Profiler phospho-RTK array, iBMDMs; format: cell-based, mouse; conditions: 3′3′-cGAMP or c-di-AMP 10 μg/ml, 16 hours, LDK378 10 μM
Source text: The Proteome Profiler Mouse XL Cytokine Array Kit (#ARY028) and the Proteome Profiler Mouse Phospho-RTK Array Kit (#ARY014) are membrane-based sandwich immunoassays. Captured antibodies spotted in duplicate on nitrocellulose membranes bind to specific target proteins present in the sample (Step 1). Captured proteins are detected with biotinylated detection antibodies (Step 2) and then visualized using chemiluminescent detection reagents (Step 3). The signal produced is proportional to the amount of analyte bound. The intensities of bands were analyzed with Quick Spots Image Analysis Software (Western Vision Software, http://www.wvision.com/QuickSpots.html).

[7] = test system: IFNβ mRNA in J774A.1 cells; assay: IFNβ mRNA Q-PCR, J774A.1 cells; format: cell-based, mouse; conditions: STING ligands 10 μg/ml, inhibitor 10 μM, 16 hours
Experimental: as §1

T1 sequence (P97793 19-1621): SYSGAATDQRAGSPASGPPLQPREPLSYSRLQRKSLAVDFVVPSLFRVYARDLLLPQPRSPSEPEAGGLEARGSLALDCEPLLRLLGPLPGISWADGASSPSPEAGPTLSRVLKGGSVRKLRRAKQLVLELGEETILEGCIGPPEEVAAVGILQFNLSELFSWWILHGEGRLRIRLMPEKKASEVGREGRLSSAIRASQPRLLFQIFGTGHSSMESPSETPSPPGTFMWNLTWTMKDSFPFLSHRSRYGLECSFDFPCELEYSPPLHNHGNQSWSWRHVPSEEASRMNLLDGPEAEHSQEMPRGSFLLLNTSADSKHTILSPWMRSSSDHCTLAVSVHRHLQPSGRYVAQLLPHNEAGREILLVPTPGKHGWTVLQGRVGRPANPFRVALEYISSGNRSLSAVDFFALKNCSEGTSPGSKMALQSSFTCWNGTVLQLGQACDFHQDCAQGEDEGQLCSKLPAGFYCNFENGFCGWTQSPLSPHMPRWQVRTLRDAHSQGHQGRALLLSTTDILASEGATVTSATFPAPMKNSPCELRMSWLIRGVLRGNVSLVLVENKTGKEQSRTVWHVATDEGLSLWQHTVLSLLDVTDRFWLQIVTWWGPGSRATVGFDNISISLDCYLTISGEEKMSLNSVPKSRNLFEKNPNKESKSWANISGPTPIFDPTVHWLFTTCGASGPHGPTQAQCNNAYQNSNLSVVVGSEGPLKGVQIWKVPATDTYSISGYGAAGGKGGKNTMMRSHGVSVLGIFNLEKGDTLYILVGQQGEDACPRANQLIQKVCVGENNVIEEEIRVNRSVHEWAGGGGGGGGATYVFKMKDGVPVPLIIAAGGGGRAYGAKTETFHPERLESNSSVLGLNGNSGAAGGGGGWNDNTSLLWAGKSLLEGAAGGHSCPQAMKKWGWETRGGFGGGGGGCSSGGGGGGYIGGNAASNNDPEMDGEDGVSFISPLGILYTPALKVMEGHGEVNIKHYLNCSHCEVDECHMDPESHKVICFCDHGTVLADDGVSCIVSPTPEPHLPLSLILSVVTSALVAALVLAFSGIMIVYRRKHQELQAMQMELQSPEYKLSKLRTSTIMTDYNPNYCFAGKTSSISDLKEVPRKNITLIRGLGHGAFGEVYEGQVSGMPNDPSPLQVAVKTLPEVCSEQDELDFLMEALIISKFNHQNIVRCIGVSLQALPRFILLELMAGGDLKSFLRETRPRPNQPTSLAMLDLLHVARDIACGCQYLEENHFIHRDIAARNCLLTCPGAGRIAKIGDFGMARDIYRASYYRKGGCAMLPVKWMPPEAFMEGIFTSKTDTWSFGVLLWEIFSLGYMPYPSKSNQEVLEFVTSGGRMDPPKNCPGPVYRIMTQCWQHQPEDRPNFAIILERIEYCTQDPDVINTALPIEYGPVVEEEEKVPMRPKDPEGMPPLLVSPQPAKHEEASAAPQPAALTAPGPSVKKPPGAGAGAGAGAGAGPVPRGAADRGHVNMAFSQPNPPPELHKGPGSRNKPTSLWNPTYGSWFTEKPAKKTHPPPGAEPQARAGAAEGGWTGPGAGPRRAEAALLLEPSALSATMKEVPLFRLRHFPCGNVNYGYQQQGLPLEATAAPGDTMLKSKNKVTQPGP
T1 sequence (Q01279 25-1210): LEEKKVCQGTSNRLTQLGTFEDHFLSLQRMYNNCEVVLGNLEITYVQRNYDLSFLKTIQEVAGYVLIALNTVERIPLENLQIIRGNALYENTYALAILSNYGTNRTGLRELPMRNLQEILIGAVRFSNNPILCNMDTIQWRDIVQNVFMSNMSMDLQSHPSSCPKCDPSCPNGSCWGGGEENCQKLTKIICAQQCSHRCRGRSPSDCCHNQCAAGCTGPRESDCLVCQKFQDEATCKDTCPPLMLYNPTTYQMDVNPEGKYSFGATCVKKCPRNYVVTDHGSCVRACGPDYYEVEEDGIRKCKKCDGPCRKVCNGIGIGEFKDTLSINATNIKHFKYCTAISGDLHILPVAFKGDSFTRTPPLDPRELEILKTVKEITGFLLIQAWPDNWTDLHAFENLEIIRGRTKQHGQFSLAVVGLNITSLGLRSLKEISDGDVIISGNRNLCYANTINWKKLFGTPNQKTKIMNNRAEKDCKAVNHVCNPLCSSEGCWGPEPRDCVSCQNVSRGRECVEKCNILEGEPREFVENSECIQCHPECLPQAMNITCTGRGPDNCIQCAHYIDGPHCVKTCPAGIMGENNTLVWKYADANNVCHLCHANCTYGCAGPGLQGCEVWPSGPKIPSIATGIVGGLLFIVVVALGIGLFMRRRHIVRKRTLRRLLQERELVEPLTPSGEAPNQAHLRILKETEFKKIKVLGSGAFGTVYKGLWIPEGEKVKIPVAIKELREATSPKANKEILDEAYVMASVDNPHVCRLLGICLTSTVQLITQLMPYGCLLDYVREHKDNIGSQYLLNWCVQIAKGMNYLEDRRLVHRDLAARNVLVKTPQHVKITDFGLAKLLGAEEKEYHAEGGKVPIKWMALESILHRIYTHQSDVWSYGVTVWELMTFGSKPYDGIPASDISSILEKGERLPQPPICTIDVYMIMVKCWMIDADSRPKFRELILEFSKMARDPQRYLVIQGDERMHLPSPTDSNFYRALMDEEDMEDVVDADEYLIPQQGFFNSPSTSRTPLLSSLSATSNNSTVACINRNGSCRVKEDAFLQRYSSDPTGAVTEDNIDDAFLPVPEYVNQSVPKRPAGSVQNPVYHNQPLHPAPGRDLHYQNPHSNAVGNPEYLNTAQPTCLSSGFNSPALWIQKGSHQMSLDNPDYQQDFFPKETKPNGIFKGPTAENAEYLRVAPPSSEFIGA

Cc1cc(Nc2ncc(Cl)c(Nc3ccccc3S(=O)(=O)C(C)C)n2)c(OC(C)C)cc1C1CCNCC1 [LDK378, 5-chloro-N^2-(2-isopropoxy-5-methyl-4-(piperidin-4-yl)phenyl)-N^4-[2-(propane-2-sulfonyl)-phenyl]-pyrimidine-2,4-diamine]
3′3′-cGAMP-induced p-TBK1 ([1]; 3′3′-cGAMP 10 μg/ml, 10 μM, three to 16 hours): time-dependently reduced | STING ligand-induced phosphorylation of TBK1, IRF3, and p65 ([1]; 3′3′-cGAMP or c-di-AMP 10 μg/ml, 16 hours, 10 μM): diminished | LPS-induced phosphorylation of TBK1, IRF3, and p65 ([1]; LPS 1 μg/ml, LDK378 10 μM, three hours): inhibited | 3′3′-cGAMP-, c-di-AMP-, and DMXAA-induced p-IRF3 and p-p65 ([1]; ligand 10 μg/ml, 10 μM): inhibited | c-di-AMP- or DMXAA-induced p-TBK1 ([1]; ligand 10 μg/ml, 10 μM, 16 hours): inhibited | 3′3′-cGAMP- or c-di-AMP-induced phosphorylation of ALK, EGFR, and AKT ([1]; ligand 10 μg/ml, 16 hours, 10 μM): attenuated | interaction between ALK and EGFR [2]: reduced | cell viability [3]: did not affect cell viability | CLP-induced lethality (animal death) ([4]; B6 mice, CLP 22-gauge needle, LDK378 20 mg/kg, intraperitoneally (i.p.), 2, 24, 48, and 72 hours after CLP, 20 mg/kg): conferred protection against lethality; also recorded: conferred significant protection; also recorded: prevented | protection of STING-deficient mice in high-grade sepsis ([4]; CLP 17 G needle, STING-deficient mice): conferred further protection | organ dysfunction by serum tissue enzymes (CK, AMYL, BUN, ALT) ([4]; CLP 22-gauge needle, LDK378 20 mg/kg, day 2-7): protective effects | CLP-induced TNFα, IFNβ, MCP1, and IL-7 mRNA expression ([4]; CLP 22-gauge needle, LDK378 20 mg/kg, day 3): reduced | CLP-induced tissue injury (H&E; lung, small intestine, other tissues) ([4]; CLP 22-gauge needle, LDK378 20 mg/kg, day 3, 20 mg/kg): reduced injury; also recorded: prevented | top five downregulated circulating immune chemical mediators compared with control group ([4]; CLP 22-gauge needle, serum, day 3): IL-10, serpin E1, serpin F1, TIM-1, and CXCL2 | animal survival in low-, middle-, and high-grade sepsis models ([4]; CLP with 27 G, 22 G, 17 G needles, B6 mice): prolonged animal survival | CLP-induced cytokine systemic release and accumulation in the serum ([4]; serum antibody array, CLP 22-gauge needle, LDK378 20 mg/kg, day 3): reduced | STING ligand-induced IFNβ mRNA expression [5]: attenuation | STING ligand-induced upregulated phosphorylation of various RTKs, including EGFR [6]: impaired | STING ligand-induced IFNβ mRNA expression [7]: attenuation
